Results from PubChem BioAssay (NCI).
“And” between values parts separate entries of the source, which are not always exact repeats. Equal entries are not always repeated.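 1) Cells in 96-well plates. 2) Compound, 48 h, 5 concentrations. 3) Linear interpolation between surrounding doses. 4) Unreached endpoint = highest concentration. GI50 = concentration required for 50% inhibition of growth. At the TGI there is no net growth.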

What was measured:
Experiment in all cases: NCI tumour cell line growth inhibition, 48 h
CAKI-1 renal = system: CAKI-1 renal
CCRF-CEM leukemia = system: CCRF-CEM leukemia
EKVX NSCLC = system: EKVX NSCLC
HCC-2998 colon = system: HCC-2998 colon
MALME-3M melanoma = system: MALME-3M melanoma
OVCAR-3 ovarian = system: OVCAR-3 ovarian
OVCAR-5 ovarian = system: OVCAR-5 ovarian
SK-MEL-2 melanoma = system: SK-MEL-2 melanoma
SK-MEL-5 melanoma = system: SK-MEL-5 melanoma
SR leukemia = system: SR leukemia

Structure (SMILES)	GI50 (CAKI-1 renal)	TGI (CAKI-1 renal)	GI50 (CCRF-CEM leukemia)	TGI (CCRF-CEM leukemia)	GI50 (EKVX NSCLC)	TGI (EKVX NSCLC)	GI50 (HCC-2998 colon)	TGI (HCC-2998 colon)	GI50 (MALME-3M melanoma)	TGI (MALME-3M melanoma)	GI50 (OVCAR-3 ovarian)	TGI (OVCAR-3 ovarian)	GI50 (OVCAR-5 ovarian)	TGI (OVCAR-5 ovarian)	GI50 (SK-MEL-2 melanoma)	TGI (SK-MEL-2 melanoma)	GI50 (SK-MEL-5 melanoma)	TGI (SK-MEL-5 melanoma)	GI50 (SR leukemia)	TGI (SR leukemia)
CN1CCN(c2ccc(C(=O)Nc3n[nH]c4ccc(Cc5cc(F)cc(F)c5)cc34)c(NC3CCOCC3)c2)CC1	8.53 µM and 1.56 µM	> 10 µM and 3.07 µM	2.93 µM and 2.05 µM	> 10 µM and 5.16 µM	3.07 µM	> 10 µM	1.49 µM and 1.59 µM	3 µM and 3.18 µM	1.5 µM	3.01 µM	3.33 µM and 1.47 µM	> 10 µM and 2.84 µM	1.85 µM and 1.31 µM	> 10 µM and 2.73 µM	4.5 µM and 1.86 µM	> 10 µM and 3.53 µM	1.62 µM and 1.56 µM	3.01 µM and 2.98 µM	0.0734 µM and 0.0312 µM	2.15 µM and 1.69 µM
CC1=CCC[C@@]2(C)C(CC[C@@H]2C(C)/C=C/C(C)C)c2ccc(cc2C(=O)O)C[C@@H](O)CC1 (stereo not given in full)		32.9 µM		20.8 µM				23.5 µM		37.7 µM		26.8 µM		30 µM		37.5 µM		12.5 µM		33 µM
O=C(O)CSCc1cccc2ccccc12		> 100 µM		> 100 µM		> 100 µM				> 100 µM		> 100 µM		> 100 µM		> 100 µM		> 100 µM		> 100 µM
CNC(=O)c1cc(COc2nnc(Nc3ccc(Cl)cc3)c3ccoc23)ccn1	3.46 µM and > 10 µM	19.7 µM and > 10 µM	26.9 µM and > 10 µM	> 79.5 µM	10.6 µM and > 10 µM	28.3 µM and > 10 µM	17 µM and > 10 µM	52.7 µM and > 10 µM	4.11 µM and > 10 µM	17.2 µM and > 10 µM	11.1 µM and > 10 µM	26.4 µM and > 10 µM	12.3 µM and > 10 µM	38.9 µM and > 10 µM	6.71 µM and > 10 µM	21 µM and > 10 µM	7.66 µM and 7.85 µM	> 47.1 µM	20.1 µM and > 10 µM	83.1 µM and > 10 µM
CC[P+](C)(Cc1ccccc1)c1ccccc1 (stereo not given)				> 100 µM		> 100 µM		> 100 µM		> 100 µM		> 100 µM		> 100 µM		> 100 µM		> 100 µM		> 100 µM
COc1cc2c(cc1OC)C13CCN4C=C5CCOC6CC(=O)N2C1C6C5CC43 (stereo not given)		> 100 µM		> 100 µM		> 100 µM				> 100 µM		> 100 µM		> 100 µM		> 100 µM		> 100 µM		> 100 µM
Cc1cc(C)nc(NC(N)=NCCc2ccccc2)n1	19.4 µM	97.5 µM	5.19 µM	> 100 µM	3.66 µM	89.9 µM	8.41 µM	30.6 µM	2.23 µM	10.5 µM	2.76 µM	8.35 µM	9.81 µM	> 100 µM	12.6 µM	> 100 µM	1.75 µM	5.39 µM	2.77 µM	14.5 µM
Nc1nc(CCC(=O)Nc2cccc(C(F)(F)F)c2)cc(-c2cccc3ccccc23)n1		> 100 µM		> 100 µM		> 100 µM		> 100 µM		> 100 µM		> 100 µM		> 100 µM		> 100 µM		> 100 µM		> 100 µM
CN(C)CCCOc1ccccc1NC1=C(Cl)C(=O)C(Nc2ccccc2OCCCN(C)C)=C(Cl)C1=O	1.07 µM	2.27 µM	0.262 µM	1.3 µM	0.693 µM	1.97 µM	0.604 µM	1.31 µM	0.923 µM	2.43 µM	0.172 µM	0.319 µM	1.4 µM	2.84 µM	1.83 µM	3.58 µM	1.35 µM	2.65 µM	0.837 µM	5.47 µM
C(=Nc1ccccc1)C1CCCC[N-]1.C(=Nc1ccccc1)C1CCCC[N-]1.[Cu+2].[O-][Cl+3]([O-])([O-])O (stereo not given)	3.96 µM	16.6 µM	6.3 µM	36.6 µM	19 µM	58.1 µM	2.4 µM	24.4 µM	14 µM	33.9 µM	13 µM	20.4 µM	14.8 µM	31.6 µM	15.8 µM	40.9 µM	8.64 µM	27.7 µM	1.64 µM	6.12 µM
CCC1(C)NN=c2s/c(=C/c3ccc(OC)cc3)c(=O)n2N1 (stereo not given)		> 100 µM		> 100 µM		> 100 µM		> 100 µM		> 100 µM		> 100 µM		> 100 µM		> 100 µM		> 100 µM		> 100 µM
FC(F)(F)C1(Cl)C(c2ccccc2)=C1c1ccccc1		25.3 µM		12.1 µM		29.9 µM		31.8 µM		28.5 µM		31.2 µM		31.3 µM		28.5 µM		24 µM		> 100 µM
CC1[C@@H]2[C@@H](C=C3C4CCC5Cc6nc7c(nc6C[C@@]5(C)C4C[C@H](O)[C@]32CO)CC2CCC3C4=C[C@H]5O[C@@]6(O[C@@](C)(CO)C[C@@H]6O)C(C)[C@@]5(O)[C@]4(C)[C@@H](O)CC3[C@]2(C)C7)O[C@]12CCC(C)(C)O2 (stereo not given in full)	0.0406 µM	> 3.65 µM	0.000474 µM		0.0119 µM	0.749 µM and 2 µM	1.34 µM	0.39 µM and > 3.65 µM	0.00982 µM	0.722 µM and 0.183 µM	1.99 µM	> 3.65 µM	0.00878 µM	0.961 µM and 0.108 µM	0.0114 µM	0.455 µM and 0.284 µM	0.00864 µM	0.134 µM and 0.16 µM		0.229 µM
Cc1ccc(C(=O)N(CCCN)[C@@H](c2nc3cc(Cl)ccc3c(=O)n2Cc2ccccc2)C(C)C)cc1		2.33 µM and 1.94 µM	< 0.01 µM	3.3 µM and 1.46 µM	< 0.01 µM	2.22 µM and 1.64 µM	< 0.01 µM	1.23 µM and 0.912 µM	0.0303 µM	2.39 µM	< 0.01 µM		< 0.01 µM	2.02 µM and 1.74 µM	< 0.01 µM		< 0.01 µM	1.35 µM and 1.46 µM	< 0.01 µM	1.63 µM and 1.44 µM
COC(=O)Cc1cc(OC)c(OC)cc1Br		> 100 µM		> 100 µM		> 100 µM		> 100 µM		> 100 µM		> 100 µM		> 100 µM		> 100 µM				> 100 µM
